From US20210122763A1, “OGA INHIBITOR COMPOUNDS” (Janssen Pharmaceutica NV, priority 2018, published 2021) come the findings set out here.

Some results are limits rather than exact numbers.

The target of test [1] is T1, recombinant human Meningioma Expressed Antigen 5 (MGEA5), also referred to as O-GlcNAcase (OGA) (Homo sapiens, UniProt O60502).
T1 construct: Full length OGA enzyme was purchased at OriGene (cat #TP322411); purchased OriGene TP322411
T1 sequence (O60502 1-916): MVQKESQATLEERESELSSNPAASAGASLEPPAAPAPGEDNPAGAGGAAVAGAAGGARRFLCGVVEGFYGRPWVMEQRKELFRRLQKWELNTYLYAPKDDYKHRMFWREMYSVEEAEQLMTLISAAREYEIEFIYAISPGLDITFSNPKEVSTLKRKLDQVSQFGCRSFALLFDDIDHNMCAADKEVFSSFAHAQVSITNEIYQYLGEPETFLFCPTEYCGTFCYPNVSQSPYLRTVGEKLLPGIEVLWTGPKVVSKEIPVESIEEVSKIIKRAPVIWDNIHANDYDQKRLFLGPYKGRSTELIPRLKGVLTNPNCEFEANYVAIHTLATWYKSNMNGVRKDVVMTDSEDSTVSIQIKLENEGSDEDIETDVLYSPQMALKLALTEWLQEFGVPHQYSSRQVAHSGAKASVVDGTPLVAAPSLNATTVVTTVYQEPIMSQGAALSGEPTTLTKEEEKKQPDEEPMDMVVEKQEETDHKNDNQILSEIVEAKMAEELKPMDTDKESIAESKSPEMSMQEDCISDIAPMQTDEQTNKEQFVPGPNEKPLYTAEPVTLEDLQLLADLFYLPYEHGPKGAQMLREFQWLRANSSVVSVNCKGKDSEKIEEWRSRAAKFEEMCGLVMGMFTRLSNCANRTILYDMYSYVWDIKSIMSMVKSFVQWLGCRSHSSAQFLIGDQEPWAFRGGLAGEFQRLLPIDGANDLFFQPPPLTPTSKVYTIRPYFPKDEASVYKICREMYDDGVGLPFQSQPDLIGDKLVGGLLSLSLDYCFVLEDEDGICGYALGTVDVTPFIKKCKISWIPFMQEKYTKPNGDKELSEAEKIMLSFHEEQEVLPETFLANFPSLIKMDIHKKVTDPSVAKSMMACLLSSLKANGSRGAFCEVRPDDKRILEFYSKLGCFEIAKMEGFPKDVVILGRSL
In words: OGA biochemical assay (inhibition of FM-GlcNAc hydrolysis, fluorescence). The conditions noted are these: for IC50: read-out: Enzymatic hOGA, pIC50 (converted); for Emax: read-out: Enzymatic Emax (%). The source says:
The assay is based on the inhibition of the hydrolysis of fluorescein mono-B-D-N-Acetyl-Glucosamine (FM-GcNAc) (Mariappa et al. 2015, Biochem J470:255) by the recombinant human Meningioma Expressed Antigen 5 (MGEA5), also referred to as O-GlcNAcase (OGA). The hydrolysis FM-GlcNAc (Marker Gene technologies, cat #M1485) results in the formation of B-D-N-glucosamineacetate and fluorescein. The fluorescence of the latter can be measured at excitation wavelength 485 nm and emission wavelength 538 nm. An increase in enzyme activity results in anincrease in fluorescence signal. Full length OGA enzyme was purchased at OriGene (cat #TP322411). The enzyme was stored in 25 mM Tris.HCl, pH 7.3, 100 mM glycine, 10% glycerol at −20° C. Thiamet G and GlcNAcStatin were tested as reference compounds (Yuzwa et al. 2008 Nature Chemical Biology 4:483; Yuzwa et al. 2012 Nature Chemical Biology 8:393). The assay was performed in 200 mM Citrate/phosphate buffer supplemented with 0.005% Tween-20. 35.6 g Na2HPO4 2H2O (Sigma, #C0759) were dissolved in 1 L water to obtain a 200 mM solution. 19.2 g citric acid (Merck, #1.06580) was dissolved in 1 L water to obtain a 100 mM solution. pH of the sodiumphosphate solution was adjusted with the citric acid solution to 7.2. The buffer to stop the reaction consists of a 500 mM Carbonate buffer, pH 11.0. 734 mg FM-GlcNAc were dissolved in 5.48 mL DMSO to obtain a 250 mM solution and was stored at −20° C. OGA was used at a 2 nM concentration and FM-GcNAc at a 100 uM final concentration. Dilutions were prepared in assay buffer.
50 nl of a compound dissolved in DMSO was dispensed on Black Proxiplate™ 384 Plus Assay plates (Perkin Elmer, #6008269) and 3 μl fl-OGA enzyme mix added subsequently. Plates were pre-incubated for 60 min at room temperature and then 2 μl FM-GlcNAc substrate mix added.
Plates were briefly centrifuged for 1 min at 1000 rpm and incubate at room temperature for 6 h. To stop the reaction 5 μl STOP buffer were added and plates centrifuge again 1 min at 1000 rpm. Fluorescence was quantified in the Thermo Scientific Fluoroskan Ascent or the PerkinElmer EnVision with excitation wavelength 485 nm and emission wavelength 538 nm.
For analysis a best-fit curve is fitted by a minimum sum of squares method. From this an IC50 value and Hill coefficient was obtained. High control (no inhibitor) and low control (saturating concentrations of standard inhibitor) were used to define the minimum and maximum values.

Test [2] concerns the target T2, OGA (Homo sapiens, UniProt O60502).
T2 construct: HEK293 cells inducible for P301L mutant human Tau (isoform 2N4R) were established at Janssen; endogenous in cells; host or cells: HEK293 cells inducible for P301L mutant human Tau (2N4R)
T2 sequence (O60502 1-916): T1 sequence (O60502 1-916)
Kind of test: OGA cellular assay (ICC detection of O-GlcNAcylated proteins in HEK293 cells inducible for P301L mutant human Tau). The test is classed as cell-based. The conditions noted are these: 6 hours incubation; for Cellular Emax (%) / EC50: HEK293 cells inducible for P301L mutant human Tau; for Cellular Emax (%) / Emax: maximum = Thiamet G 200 uM; for EC50: read-out: Cellular hOGA, pEC50 (converted); for Emax: HEK293, HEK293 cells inducible for P301L mutant human Tau. On the procedure:
HEK293 cells inducible for P301L mutant human Tau (isoform 2N4R) were established at Janssen. Thiamet-G was used for both plate validation (high control) and as reference compound (reference EC50 assay validation). OGA inhibition is evaluated through the immunocytochemical (ICC) detection of O-GlcNAcylated proteins by the use of a monoclonal antibody (CTD110.6; Cell Signaling, #9875) detecting 0-GlcNAcylated residues as previously described (Dorfmueller et al. 2010 Chemistry & biology, 17:1250). Inhibition of OGA will result in an increase of 0-GlcNAcylated protein levels resulting in an increased signal in the experiment. Cell nuclei are stained with Hoechst to give a cell culture quality control and a rough estimate of immediate compounds toxicity, if any. ICC pictures are imaged with a Perkin Elmer Opera Phenix plate microscope and quantified with the provided software Perkin Elmer Harmony 4.1.
Cells were propagated in DMEM high Glucose (Sigma, #D5796) following standard procedures. 2 days before the cell assay cells are split, counted and seeded in Poly-D-Lysine (PDL) coated 96-wells (Greiner, #655946) plate at a cell density of 12,000 cells per cm^2 (4,000 cells per well) in 100p of Assay Medium (Low Glucose medium is used to reduce basal levels of GlcNAcylation) (Park et al. 2014 The Journal of biological chemistry 289:13519). At the day of compound test medium from assay plates was removed and replenished with 90 μl of fresh Assay Medium. 10 μl of compounds at a 10 fold final concentration were added to the wells. Plates were centrifuged shortly before incubation in the cell incubator for 6 hours. DMSO concentration was set to 0.2%. Medium is discarded by applying vacuum. For staining of cells medium was removed and cells washed once with 100 μl D-PBS (Sigma, #D8537). From next step onwards unless other stated assay volume was always 50p and incubation was performed without agitation and at room temperature. Cells were fixed in 50 μl of a 4% paraformaldehyde (PFA, Alpha aesar, #043368) PBS solution for 15 minutes at room temperature. […] Before analysis samples were washed 2 times manually for 5 minutes in ICC base buffer.
Imaging is performed using Perkin Elmer Phenix Opera using a water 20× objective and recording 9 fields per well. Intensity readout at 488 nm is used as a measure of O-GlcNAcylation level of total proteins in wells. To assess potential toxicity of compounds nuclei were counted using the Hoechst staining. IC50-values are calculated using parametric non-linear regression model fitting. As a maximum inhibition Thiamet G at a 200 uM concentration is present on each plate. In addition, a concentration response of Thiamet G is calculated on each plate.

Turning to `Cc1cc(OC2CCN(C(C)c3ccc4c(n3)OCCO4)CC2)cc(C)n1` (single isomer, unassigned) [Compound 2], in test [1], the “Enzymatic Emax (%)” value was 29% and the IC50 is over 10000 nM. In test [2], the “Cellular Emax (%)” value is −14% and the EC50 is over 1000 nM.
For `Cc1cc(OC2CCN(C(C)c3ccc4c(n3)OCCO4)CC2)cc(C)n1` (single isomer, unassigned) [Compound 3] the same measures were 103%, 50.1 nM, 83% and 251 nM.
In general, Emax refers to the size of the effect at its maximum, as opposed to the concentration needed. Take `Cc1cc(OC2CCN(C(C)c3ccc4c(n3)OCCO4)CC2)nc(C)n1` (single isomer, unassigned) [Compound 10]: in test [1], the Emax turned out to be 100% and the IC50 was 50.1 nM. Moreover, in test [2], the Emax is 73% and the EC50 is 631 nM.
Turning to `Cc1cc(OC2CCN(C(C)c3ccc4c(n3)OCCO4)CC2)nc(C)n1` (single isomer, unassigned) [Compound 11], in test [1], the “Enzymatic Emax (%)” value stood at 84% and the IC50 was 2510 nM.
Take `COc1cc(OC2CCN(C(C)c3ccc4sc(C)nc4n3)CC2)cc(C)n1` (single isomer, unassigned) [Compound 23]: in test [1], the “Enzymatic Emax (%)” value stood at 59% and the IC50 was 3980 nM. In addition, in test [2], the “Cellular Emax (%)” value was −8% and the EC50 is over 1000 nM.
For `COc1cc(OC2CCN(C(C)c3ccc4sc(C)nc4n3)CC2)cc(C)n1` (single isomer, unassigned) [Compound 24] the same measures were 98%, 20 nM, 72% and 100 nM.
For `COc1cc(OC2CCN(C(C)c3ccc4c(n3)OCCO4)CC2)cc(C)n1` (single isomer, unassigned) [Compound 53] the same measures were 55%, 7940 nM, −8% and over 1000 nM.
For `COc1cc(OC2CCN(C(C)c3ccc4c(n3)OCCO4)CC2)cc(C)n1` (single isomer, unassigned) [Compound 54] the same measures were 100%, 12.6 nM, 83% and 126 nM.
As for `Cc1cc(OC2CCN([C@H](C)c3nc4c(cc3F)OCCO4)CC2)nc(C)n1` (single isomer, unassigned) [Compound 55], in test [1], the Emax is 97% and the IC50 was 200 nM. For the same compound, in test [2], the Emax stood at 14% and the EC50 was over 1000 nM.
The corresponding values for `Cc1cc(OC2CCN([C@H](C)c3ccc4c(n3)OCC4)CC2)cc(C)n1` (single isomer, unassigned) [Compound 61] are 95%, 15.8 nM, 87% and 79.4 nM.
As for `Cc1cc(OC2CCN([C@@H](C)c3ccc4c(n3)OCC4)CC2)cc(C)n1` (single isomer, unassigned) [Compound 62], in test [1], the Emax turned out to be 90% and the IC50 was 1000 nM. Moreover, in test [2], the Emax worked out at 6% and the EC50 was over 1000 nM.
The corresponding values for `COc1cc(OC2CCN([C@H](C)c3nc4nc(C)sc4cc3F)CC2)cc(C)n1` (single isomer, unassigned) [Compound 80] are 96%, 631 nM, 7% and over 1000 nM.
The corresponding values for `COc1cc(OC2CCN([C@@H](C)c3nc4nc(C)sc4cc3F)CC2)cc(C)n1` (single isomer, unassigned) [Compound 81] are 93%, 1.58 nM, 87% and 31.6 nM.
Take `Cc1cc(OC2CCN([C@H](C)c3nc4nc(C)sc4cc3F)CC2)cc(C)n1` (single isomer, unassigned) [Compound 82]: in test [1], the Emax came to 97% and the IC50 is 631 nM. In test [2], the Emax worked out at 18% and the EC50 was over 1000 nM.
The corresponding values for `C[C@H](c1nc2c(cc1F)OCCO2)N1CCC(Oc2ccc(C#N)nn2)CC1` (single isomer, unassigned) [Compound 85] are -11%, over 10000 nM, -3% and over 1000 nM.
`Cc1cc(OC2CCN(C(C)c3ccc4c(n3)OCCO4)CC2)cc(C)n1` (centres unmarked) [Compound 1]: in test [1], the Emax worked out at 101% and the IC50 is 63.1 nM.
In the case of `Cc1cc(OC2CCN(C(C)c3ccc4c(n3)OCCO4)CC2)nc(C)n1` (centres unmarked) [Compound 9], in test [1], the Emax was 102% and the IC50 was 100 nM.
